Data reported in ChEMBL document CHEMBL4680171, “Oxadiazolylthiazoles as novel and selective antifungal agents” (Eur J Med Chem, 2020).
≈ marks a conversion by molar mass, not a printed value. Calls of active or inactive are those of the source. The rule behind the calls is not given here.

What was measured:
Candida albicans [1] = assay: Antifungal activity against Candida albicans SS5314 assessed as reduction in fungal growth by CLSI based broth microdilution method; assay type: functional
Candida albicans [2] = assay: Antifungal activity against Candida albicans ATCC 10231 assessed as reduction in fungal growth incubated for 24 hrs by CLSI based broth microdilution method; assay type: functional
Candida albicans [3] = assay: Antifungal activity against fluconazole-resistant Candida albicans NR29448 assessed as reduction in fungal growth incubated for 24 hrs by CLSI based broth microdilution method; assay type: functional
[Candida] auris [4] = Antifungal activity against fluconazole-resistant Candida auris 381 assessed as reduction in fungal growth incubated for 24 hrs by CLSI based broth microdilution method; assay type: functional; conditions: Candidozyma auris
[Candida] auris [5] = Antifungal activity against fluconazole-resistant Candida auris 383 assessed as reduction in fungal growth incubated for 24 hrs by CLSI based broth microdilution method; assay type: functional; conditions: Candidozyma auris
[Candida] auris [6] = Antifungal activity against fluconazole-resistant Candida auris 384 assessed as reduction in fungal growth incubated for 24 hrs by CLSI based broth microdilution method; assay type: functional; conditions: Candidozyma auris
Nakaseomyces glabratus [7] = assay: Antifungal activity against Candida glabrata ATCC 66032 assessed as reduction in fungal growth incubated for 24 hrs by CLSI based broth microdilution method; assay type: functional
Nakaseomyces glabratus [8] = assay: Antifungal activity against Candida glabrata ATCC MYA-2950 assessed as reduction in fungal growth incubated for 24 hrs by CLSI based broth microdilution method; assay type: functional
Candida parapsilosis [9] = assay: Antifungal activity against Candida parapsilosis ATCC 22019 assessed as reduction in fungal growth incubated for 24 hrs by CLSI based broth microdilution method; assay type: functional; conditions: Lodderomyces parapsilosis
Candida parapsilosis [10] = assay: Antifungal activity against Candida parapsilosis CAB 502638 assessed as reduction in fungal growth incubated for 24 hrs by CLSI based broth microdilution method; assay type: functional; conditions: Lodderomyces parapsilosis
Pichia kudriavzevii [11] = assay: Antifungal activity against Candida krusei CAB 396420 assessed as reduction in fungal growth incubated for 24 hrs by CLSI based broth microdilution method; assay type: functional
Pichia kudriavzevii [12] = assay: Antifungal activity against Candida krusei ATCC 34135 assessed as reduction in fungal growth incubated for 24 hrs by CLSI based broth microdilution method; assay type: functional
Cryptococcus neoformans [13] = assay: Antifungal activity against Cryptococcus neoformans NR41298 assessed as reduction in fungal growth incubated for 48 hrs by CLSI based broth microdilution method; assay type: functional
Cryptococcus neoformans [14] = assay: Antifungal activity against Cryptococcus neoformans NR41300 assessed as reduction in fungal growth incubated for 48 hrs by CLSI based broth microdilution method; assay type: functional
Cryptococcus neoformans [15] = assay: Antifungal activity against Cryptococcus neoformans NR48770 assessed as reduction in fungal growth incubated for 48 hrs by CLSI based broth microdilution method; assay type: functional
[16] = system: Cryptococcus gattii species complex; assay: Antifungal activity against Cryptococcus gattii NR43210 assessed as reduction in fungal growth incubated for 48 hrs by CLSI based broth microdilution method; assay type: functional, Cryptococcus bacillisporus
[17] = system: Cryptococcus gattii species complex; assay: Antifungal activity against Cryptococcus gattii NR43209 assessed as reduction in fungal growth incubated for 48 hrs by CLSI based broth microdilution method; assay type: functional, Cryptococcus bacillisporus
Lactobacillus gasseri = assay: Antibacterial activity against Lactobacillus gasseri HM-400 assessed as reduction in bacterial growth by CLSI based assay
Lacticaseibacillus casei = assay: Antibacterial activity against Lactobacillus casei HM-334 assessed as reduction in bacterial growth by CLSI based assay; assay type: organism-based
Lactobacillus crispatus = assay: Antibacterial activity against Lactobacillus crispatus HM-370 assessed as reduction in bacterial growth by CLSI based assay
[18] = Cytotoxicity against African green monkey Vero cells assessed as reduction in cell viability incubated for 2 hrs by MTS assay; assay type: cell-based; conditions: chlorocebus sabaeus
Candida albicans [19] = assay: Fungicidal activity against Candida albicans SS5314 assessed as eradication of fungal count at 5XMIC measured after 2 hrs by time kill assay relative to control; assay type: functional
Vero = assay: Cytotoxicity against African green monkey Vero cells assessed as reduction in cell viability at 16 ug/ml incubated for 2 hrs by MTS assay; assay type: cell-based; conditions: chlorocebus sabaeus, dose 16 µg/ml
Candida albicans [20] = assay: Antifungal activity against Candida albicans SS5314 assessed as reduction in fungal growth incubated for 24 hrs by CLSI based broth microdilution method; assay type: functional
Aspergillus fumigatus [21] = assay: Antifungal activity against Aspergillus fumigatus NR 35303 assessed as reduction in fungal growth incubated for 24 hrs by CLSI based broth microdilution method; assay type: functional
Aspergillus fumigatus [22] = assay: Antifungal activity against Aspergillus fumigatus NR 35304 assessed as reduction in fungal growth incubated for 24 hrs by CLSI based broth microdilution method; assay type: functional
Candida albicans [23] = assay: Antibiofilm activity against Candida albicans NR29448 assessed as reduction in biofilm formation at 0.5XMIC incubated for 24 hrs by crystal violet staining based assay relative to control; assay type: functional
Candida albicans [24] = assay: Antibiofilm activity against 24 hrs preformed biofilm of Candida albicans NR29448 assessed as disruption of mature biofilm at 64 ug/ml incubated for 24 hrs by crystal violet staining based spectrophotometry relative to control; assay type: functional; conditions: dose 64.0 µg/ml
Candida albicans [25] = assay: Fungistatic activity against Candida albicans SS5314 at 5 to 10x MIC measured for 36 hrs by time kill assay; assay type: functional, organism-based
Candida albicans [26] = assay: Antifungal activity against Candida albicans SS5314 assessed as reduction in fungal growth measured after 10 passages by CLSI based broth microdilution method; assay type: functional, organism-based

Row | SMILES | MIC (Candida albicans [1]) | MIC (Candida albicans [2]) | MIC (Candida albicans [3]) | MIC ([Candida] auris [4]) | MIC ([Candida] auris [5]) | MIC ([Candida] auris [6]) | MIC (Nakaseomyces glabratus [7]) | MIC (Nakaseomyces glabratus [8]) | MIC (Candida parapsilosis [9]) | MIC (Candida parapsilosis [10]) | MIC (Pichia kudriavzevii [11]) | MIC (Pichia kudriavzevii [12]) | MIC (Cryptococcus neoformans [13]) | MIC (Cryptococcus neoformans [14]) | MIC (Cryptococcus neoformans [15]) | MIC [16] | MIC [17] | MIC (Lactobacillus gasseri) | MIC (Lacticaseibacillus casei) | MIC (Lactobacillus crispatus) | other results
1 | C[C@@H]1[C@H](O)[C@@H](C)/C=C/C=C/C=C/C=C/C=C/C=C/C=C/[C@H](O[C@@H]2O[C@H](C)[C@@H](O)[C@H](N)[C@@H]2O)C[C@@H]2O[C@](O)(C[C@@H](O)C[C@@H](O)[C@H](O)CC[C@@H](O)C[C@@H](O)CC(=O)O[C@H]1C)C[C@H](O)[C@H]2C(=O)O [AMPHOTERICIN B] | 1 µg/mL (≈ 1.08 µM) | 1 µg/mL (≈ 1.08 µM) | 1 µg/mL (≈ 1.08 µM) | 0.5 µg/mL (≈ 0.541 µM) | 1 µg/mL (≈ 1.08 µM) | 2 µg/mL (≈ 2.16 µM) | 2 µg/mL (≈ 2.16 µM) | 1 µg/mL (≈ 1.08 µM) | 0.5 µg/mL (≈ 0.541 µM) | 0.5 µg/mL (≈ 0.541 µM) | 2 µg/mL (≈ 2.16 µM) | 2 µg/mL (≈ 2.16 µM) | 1 µg/mL (≈ 1.08 µM) | 1 µg/mL (≈ 1.08 µM) | 1 µg/mL (≈ 1.08 µM) | 1 µg/mL (≈ 1.08 µM) | 1 µg/mL (≈ 1.08 µM) | > 128 µg/mL | > 128 µg/mL | > 128 µg/mL | CC50 at 2 h [18]: 8 µg/mL (≈ 8.66 µM); Activity (Candida albicans [19]): 100%; Activity (Vero): Toxic; MIC (Candida albicans [20]): 1 µg/mL (≈ 1.08 µM)
2 | OC(Cn1cncn1)(Cn1cncn1)c1ccc(F)cc1F [FLUCONAZOLE] | > 64 µg/mL | 1 µg/mL (≈ 3.27 µM) | > 128 µg/mL | 2 µg/mL (≈ 6.53 µM) | 128 µg/mL (≈ 418 µM) | > 128 µg/mL | 8 µg/mL (≈ 26.1 µM) | 16 µg/mL (≈ 52.2 µM) | 1 µg/mL (≈ 3.27 µM) | 0.5 µg/mL (≈ 1.63 µM) | 16 µg/mL (≈ 52.2 µM) | 16 µg/mL (≈ 52.2 µM) | 2 µg/mL (≈ 6.53 µM) | 1 µg/mL (≈ 3.27 µM) | 2 µg/mL (≈ 6.53 µM) | 4 µg/mL (≈ 13.1 µM) | 4 µg/mL (≈ 13.1 µM) | > 128 µg/mL | > 128 µg/mL | > 128 µg/mL | MIC (Aspergillus fumigatus [21]): > 64 µg/mL; MIC (Aspergillus fumigatus [22]): > 64 µg/mL; inhibition (INH) (Candida albicans [23]): 50%; Activity (Candida albicans [24]): inactive; Activity (Candida albicans [25]): Active; Activity (Candida albicans [26]): Active; MIC (Candida albicans [20]): 1 µg/mL (≈ 3.27 µM)
